Experimental data: patent publication US8426179B2, “Synthetic peptide and peptide conjugates and related tissue coupling methods via transglutaminase enzyme” (priority 2007, dated 2013)
Entries after “also recorded” stand apart in the source; their conditions may differ. Residues, ends and D or L forms follow the SMILES beside them. *: point of attachment. X1 = C[C@]12CCC(=O)C=C1CC[C@@H]1[C@@H]2[C@@H](O)C[C@@]2(C)[C@H]1CC[C@]2(O)C(=O)COC(=O)CCC(=O)*

Tests used:
[1] = Release of hydrocortisone from coupled prodrugs on the articular surface of cartilage
Experimental: After the overnight rinse in Buffer 2 with protease inhibitors and the subsequent washes with Buffer 1, each sample was incubated in 100 μL of sterile Buffer 1, normal bovine synovial fluid, or human osteoarthritic synovial fluid at 37° C. […] At the end of the experiment, the samples were digested and analyzed as previously described.

[2] = Hydrolysis of the hydrocortisone prodrug in normal synovial fluid; assay type: in vitro ADME, bovine
Experimental: A 30 μL portion of each sample was collected at 0.5, 1, 2, 4, 7, 24, and 48 hours and added to a 60 μL mixture of water:acetonitrile:TFA (79:20:1) to prevent further hydrolysis. This solution also contained 2 mM 6α-methyl prednisolone as an internal standard. The samples were then stored at −20° C. until analyzed with RP-HPLC and eluted with a linear gradient of 24-55% acetonitrile in water with 0.1% TFA. The amount of hydrocortisone hydrolyzed from the prodrug was determined by comparing its peak area to that of 6α-methyl prednisolone. The T50% of the prodrug was calculated from 0.693/S, where S is the mean slope giving the best correlation coefficient in the linear part of the logarithmic curve of unhydrolyzed prodrug (1-[hydrocortisone]) versus time. […] Thirty microliter samples were collected at 10, 20, 30, and 60 minutes and analyzed as previously described.

[3] = tested on: articular surface of cartilage; assay: Coupling of hydrocortisone prodrugs to the articular surface of cartilage via tTG; assay type: biochemical, bovine; settings: in the absence of tTG
Experimental: Modified tissue samples were immersed in tissue freezing media and frozen at −80° C. until use. Tissue slices (25 μm thick) were cut using a cryostat (Microm HM505N, Carl Zeiss) and the freezing media was removed with 3 washes of Buffer 1. Blocking was performed with 4% goat serum in Buffer 1 (blocking buffer) for 1 hour at room temperature. The tissue sections were then incubated with 10 μg/mL mouse anti-hydrocortisone antibody for 1.5 h in the blocking buffer at room temperature, rinsed 3 times with Buffer 1 for 5 minutes each, and then incubated with fluorescein conjugated goat anti-mouse antibody (1/200) in blocking buffer for 1 hour. Samples were rinsed again with Buffer 1 and then imaged using a Leica epifluorescent microscope (λex=495 nm, λem=520 nm for fluorescein) and a SPOT RT digital camera (Diagnostic Instruments, Sterling Heights, Mich.).

cartilage sections = assay: Coupling of peptide conjugates to cartilage sections via tTG, fluorescein anti-biotin staining; assay type: biochemical, bovine
Experimental: Partial depolymerization of glycosaminoglycans in the tissue was accomplished by digesting with chondroitinase ABC at 40 mU/mL in 50 mM Tris, 70 mM sodium acetate and 0.01% bovine serum albumin (BSA) at pH 8 for 30 minutes at 37° C. Samples were then rinsed 3 times with TBS and blocked with 1% BSA in TBS for one hour at room temperature. The tTG reaction conditions used were similar to a previously described method. (See, Aeschlimann D, Wetterwald A, Fleisch H, and Paulsson M. Expression of tissue transglutaminase in skeletal tissues correlates with events of terminal differentiation of chondrocytes. Journal of Cell Biology 1993; 120: 1461-1470.) The cartilage sections were incubated in 500 μL of 50 μM peptide or peptide-PEG conjugate, 0.5 U/mL tTG, 5 mM CaCl2, 2.5 mM dithiothreitol and 100 mM Tris, at pH 8.3 for 30 min at 37° C. Control experiments were performed in the absence of tTG. After completion of the tTG reaction, the solution was removed and samples were rinsed 3 times with 1% BSA in TBS for 5 minutes each. The cartilage sections were then incubated with fluorescein conjugated anti-biotin antibody at 10 μg/mL in 1% BSA in TBS for 2 hours at room temperature. Samples were rinsed 4 times with TBS for 5 minutes each, followed by blocking with 10% donkey serum for 1 hour and incubation with rabbit anti-collagen II antibody in TBS containing 10% donkey serum for 1 hour. The samples were rinsed 3 times with 10% donkey serum in TBS and then incubated with Texas Red conjugated donkey anti-rabbit antibody. Samples were rinsed again with TBS and then imaged using a Leica epifluorescent microscope (λex=495 nm, λem=520 for fluorescein and λex=596 nm, λem=620 for Texas Red) and a SPOT RT digital camera (Diagnostic Instruments, Sterling Heights, Mich.).
Images were analyzed using Metamorph image analysis software (Molecular Devices, Sunnyvale, Calif.). Fluorescein fluorescence was measured at three randomly selected areas of the middle zone on each cartilage section image and then averaged. A similar procedure was utilized to determine Texas Red fluorescence. The fluorescein fluorescence intensity was then normalized to the fluorescence of the Texas Red for each cartilage section image in order to account for potential ECM differences between sections. Finally, the average green fluorescence for each peptide-PEG conjugate was then normalized by dividing by the red fluorescence.

Fibronectin = biological target: T1, Fibronectin (Homo sapiens, UniProt P02751); assay: Reaction of peptide conjugates with cartilage ECM protein in solution via tTG; assay type: biochemical; settings: 500 μM conjugate, 0.05 U/mL tTG, 30 min at 37° C.
T1 construct: purchased Sigma, St. Louis, Mo
Experimental: (§1) Fibronectin, collagen II, osteonectin, and osteopontin were separately combined at 0.1% (w/v) in 100 mM Tris and 5 mM CaCl2 with 500 μM peptide-PEG conjugates and 0.05 U/mL tTG. The reaction was allowed to proceed for 30 min at 37° C. and then stopped with the addition of iodoacetamide (1 mM final concentration). Control experiments without transglutaminse were also performed. The proteins were then separated using SDS-PAGE with either 7.5% fibronectin and collagen II) or 10% (osteonectin and osteopontin) gels, transferred to PVDF membranes which were then blocked with 2% BSA in TBS with 0.1% Tween (TBS-T). The modified proteins were probed with peroxidase conjugated ExtrAvidin. Detection of bound ExtrAvidin was accomplished using ECL Plus Western Blotting Detection Reagents and imaged on a Storm 860 imager (GE Healthcare Biosciences, Piscataway, N.J.). Band intensities were measured using ImageQuant (GE Healthcare Biosciences). Statistical analysis was performed using one-way ANOVA and Tukey's post-hoc test with 95% confidence intervals with SPSS (SPSS, Chicago, Ill.). Reactions of B72Q and B72K with osteonectin and osteopontin were dialyzed against 10 mM acetic acid and then analyzed by MALDI-TOF MS.

osteonectin = biological target: T2, osteonectin (Homo sapiens, UniProt P09486); assay: as above; assay type: biochemical; settings: for reactivity / normalized band intensity on western blot: osteonectin, 500 μM conjugate, 0.05 U/mL tTG, 30 min at 37° C.; for number of conjugate molecules coupled per protein (MALDI-TOF): osteonectin with tTG
T2 construct: purchased Biodesign, Saco, Me
T2 sequence (P09486 18-303): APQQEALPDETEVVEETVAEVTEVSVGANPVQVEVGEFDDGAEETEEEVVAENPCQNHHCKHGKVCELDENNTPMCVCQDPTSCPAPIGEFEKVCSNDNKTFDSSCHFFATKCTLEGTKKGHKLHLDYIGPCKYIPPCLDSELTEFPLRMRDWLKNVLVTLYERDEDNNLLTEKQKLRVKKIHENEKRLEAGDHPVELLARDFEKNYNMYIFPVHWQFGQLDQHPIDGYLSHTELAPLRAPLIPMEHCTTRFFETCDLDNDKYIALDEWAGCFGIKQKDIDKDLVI
Experimental: as §1

collagen II = biological target: T3, collagen II (Homo sapiens, UniProt P02458); assay: as above; assay type: biochemical; settings: type II collagen, 500 μM conjugate, 0.05 U/mL tTG, 30 min at 37° C.
T3 construct: isolated by pepsin digestion, which yields primarily the triple helical region of collagen II; purchased Chondrex, Redmond, Wash
Experimental: as §1

cartilage = settings: for average depth of peptide coupling: with tTG, chondroitinase ABC digested cartilage, along the cut edge
Experimental: For the coupling of peptide conjugates to cartilage sections, osteochondral plugs were extracted from adult bovine metacarpophalangeal joints using a hole punch with a diameter of 0.793 cm. Samples were then frozen in tissue freezing media and stored at −80° C. until use. Vertical sections (25 μm), which included the articular surface as well as a portion of the underlying bone, were cut using a cryostat (Microm HM505N, Carl Zeiss) and the freezing media was removed with 3 washes of Tris buffered saline (TBS) (50 mM Tris, 100 mM NaCl) at pH 7.4. For the penetration studies, four millimeter by two millimeter rectangular samples of cartilage were excised from adult bovine metacarpophalangeal joint to a depth of 200-250 microns from the articular surface. Samples were frozen as described earlier for later use, at which time they were thawed and rinsed in TBS.
Four millimeter by two millimeter rectangular samples of cartilage were thawed and rinsed, after which the chondroitinase ABC digestion and tTG reactions with the peptide and peptide-PEG conjugates were performed as stated above. […] The samples were then frozen in tissue freezing media followed by cutting using a cryostat. Twenty micron thick vertical sections were collected from each cartilage piece, rinsed in TBS, blocked with 1% BSA TBS containing 0.1% Tween (TBST), and incubated with peroxidase conjugated anti-biotin antibody at 5 μg/mL in 1% BSA in TBS-T for 2 hours at room temperature. Samples were rinsed 4 times with TBS and 4 times with distilled water. Finally, the anti-biotin antibody was detected using a DAB kit which contains the peroxidase substrate 3,3′-diaminobenzidine yielding a brown color. Samples were imaged using a Leica microscope (brightfield) and a SPOT RT digital camera.
Adobe Photoshop (Adobe, Inc, San Jose, Calif.) was used to measure the depth to which the peptide and peptide-PEG conjugates were detected. The depth of staining into the cartilage along the cut surface perpendicular to the articular surface was measured at distances of 60, 120 and 180 microns from the articular surface for each sample. The average depth of staining for each sample was calculated from these three measurements. For each peptide and peptide-PEG conjugate, an overall mean depth of staining was determined from the measurements of three samples.
In a separate series of experiments, 2 mm by 4 mm by 200-250 μm pieces of cartilage were incubated with each peptide-PEG conjugate and tTG. At the completion of the reaction, the cartilage pieces were frozen and sectioned and the coupled peptide conjugates were detected with a perioxidase anti-biotin antibody. The bound antibody was detected with DAB reagent which forms a brown precipitate in the presence of perioxidase. […] The depth of peptide penetration and coupling was measured along the cut edge at 60, 120, and 180 μm from the articular surface as shown schematically in FIG. 6.

osteopontin = biological target: T4, osteopontin (Homo sapiens, UniProt P10451); assay: Reaction of peptide conjugates with cartilage ECM protein in solution via tTG; assay type: biochemical; settings: for reactivity / normalized band intensity on western blot: osteopontin, 500 μM conjugate, 0.05 U/mL tTG, 30 min at 37° C.; for number of conjugate molecules coupled per protein (MALDI-TOF): osteopontin with tTG
T4 construct: purchased R&D Systems, Minneapolis, Minn
Experimental: as §1

[4] = in the presence of tTG, 50 μM conjugate, 0.5 U/mL tTG, 30 min at 37° C.

T4 sequence (P10451 17-314, species assumed): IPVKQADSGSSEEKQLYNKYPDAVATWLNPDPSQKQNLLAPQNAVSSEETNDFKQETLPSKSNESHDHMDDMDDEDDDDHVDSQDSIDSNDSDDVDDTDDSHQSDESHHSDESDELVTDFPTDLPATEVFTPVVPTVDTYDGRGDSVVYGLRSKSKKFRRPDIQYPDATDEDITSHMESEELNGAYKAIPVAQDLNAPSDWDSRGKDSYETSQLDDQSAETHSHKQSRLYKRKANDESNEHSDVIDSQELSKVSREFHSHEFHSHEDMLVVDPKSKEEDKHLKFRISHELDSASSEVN
T1 sequence (P02751 32-2477, species assumed): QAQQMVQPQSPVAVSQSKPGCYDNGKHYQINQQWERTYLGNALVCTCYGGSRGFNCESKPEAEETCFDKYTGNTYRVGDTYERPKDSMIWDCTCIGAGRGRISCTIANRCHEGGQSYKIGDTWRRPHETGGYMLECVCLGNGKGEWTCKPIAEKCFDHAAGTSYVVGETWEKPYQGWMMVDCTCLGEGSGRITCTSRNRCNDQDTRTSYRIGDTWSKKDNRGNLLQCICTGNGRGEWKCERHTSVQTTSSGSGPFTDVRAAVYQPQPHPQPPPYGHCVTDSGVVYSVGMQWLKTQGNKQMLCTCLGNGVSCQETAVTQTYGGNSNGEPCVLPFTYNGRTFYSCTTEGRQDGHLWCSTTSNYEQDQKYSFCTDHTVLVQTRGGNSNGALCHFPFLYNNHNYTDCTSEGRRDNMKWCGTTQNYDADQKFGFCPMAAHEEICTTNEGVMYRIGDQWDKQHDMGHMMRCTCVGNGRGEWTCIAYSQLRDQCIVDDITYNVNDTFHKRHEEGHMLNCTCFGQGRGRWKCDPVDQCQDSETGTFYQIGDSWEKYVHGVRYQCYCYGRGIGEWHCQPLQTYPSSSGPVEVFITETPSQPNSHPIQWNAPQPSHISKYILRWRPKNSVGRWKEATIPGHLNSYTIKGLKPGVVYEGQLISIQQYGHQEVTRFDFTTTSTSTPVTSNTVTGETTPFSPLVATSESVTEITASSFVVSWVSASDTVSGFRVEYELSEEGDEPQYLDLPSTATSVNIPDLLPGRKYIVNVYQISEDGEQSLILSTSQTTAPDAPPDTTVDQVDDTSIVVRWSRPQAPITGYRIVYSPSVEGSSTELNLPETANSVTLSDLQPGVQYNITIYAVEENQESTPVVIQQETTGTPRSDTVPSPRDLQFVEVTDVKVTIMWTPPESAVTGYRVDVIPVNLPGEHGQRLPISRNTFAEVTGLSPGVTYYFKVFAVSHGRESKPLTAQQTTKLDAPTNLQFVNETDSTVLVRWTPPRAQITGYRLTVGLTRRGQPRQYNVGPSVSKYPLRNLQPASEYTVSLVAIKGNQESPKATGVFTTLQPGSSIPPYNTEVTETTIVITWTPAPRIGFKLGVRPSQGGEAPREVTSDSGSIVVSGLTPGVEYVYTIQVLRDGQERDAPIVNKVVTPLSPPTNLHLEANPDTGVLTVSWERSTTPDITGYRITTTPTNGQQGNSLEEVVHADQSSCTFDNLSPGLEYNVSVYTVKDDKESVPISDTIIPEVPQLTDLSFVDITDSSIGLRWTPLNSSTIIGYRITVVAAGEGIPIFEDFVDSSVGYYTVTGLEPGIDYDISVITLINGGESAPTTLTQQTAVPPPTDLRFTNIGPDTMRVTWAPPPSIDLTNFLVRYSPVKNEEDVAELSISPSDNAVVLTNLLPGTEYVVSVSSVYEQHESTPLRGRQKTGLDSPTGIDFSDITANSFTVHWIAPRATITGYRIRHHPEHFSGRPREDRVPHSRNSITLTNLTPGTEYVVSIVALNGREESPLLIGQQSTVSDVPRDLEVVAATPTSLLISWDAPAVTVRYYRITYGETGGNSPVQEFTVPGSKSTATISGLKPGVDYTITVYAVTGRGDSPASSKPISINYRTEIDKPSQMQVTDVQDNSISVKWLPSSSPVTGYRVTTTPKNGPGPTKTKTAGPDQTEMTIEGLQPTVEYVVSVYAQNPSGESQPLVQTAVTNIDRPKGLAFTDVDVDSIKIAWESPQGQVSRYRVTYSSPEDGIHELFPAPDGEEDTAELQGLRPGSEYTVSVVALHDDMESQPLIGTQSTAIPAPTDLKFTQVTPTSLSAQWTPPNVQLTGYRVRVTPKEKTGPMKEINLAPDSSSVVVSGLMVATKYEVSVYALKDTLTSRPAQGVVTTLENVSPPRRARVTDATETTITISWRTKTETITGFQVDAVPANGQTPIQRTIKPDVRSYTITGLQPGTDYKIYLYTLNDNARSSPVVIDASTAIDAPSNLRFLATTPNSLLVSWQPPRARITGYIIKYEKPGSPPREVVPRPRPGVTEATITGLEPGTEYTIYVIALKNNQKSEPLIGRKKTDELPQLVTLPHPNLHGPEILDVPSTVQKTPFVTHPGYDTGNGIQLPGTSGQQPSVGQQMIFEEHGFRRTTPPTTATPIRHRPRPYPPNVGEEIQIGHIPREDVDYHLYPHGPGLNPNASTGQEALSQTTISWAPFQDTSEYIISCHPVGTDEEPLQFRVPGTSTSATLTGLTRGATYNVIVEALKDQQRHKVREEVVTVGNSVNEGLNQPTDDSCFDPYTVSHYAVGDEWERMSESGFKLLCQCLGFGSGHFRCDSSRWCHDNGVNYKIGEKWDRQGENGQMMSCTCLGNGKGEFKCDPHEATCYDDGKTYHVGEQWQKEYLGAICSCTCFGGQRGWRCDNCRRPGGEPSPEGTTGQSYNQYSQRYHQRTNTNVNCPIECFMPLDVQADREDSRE
T3 sequence (P02458 201-1214 limits assumed): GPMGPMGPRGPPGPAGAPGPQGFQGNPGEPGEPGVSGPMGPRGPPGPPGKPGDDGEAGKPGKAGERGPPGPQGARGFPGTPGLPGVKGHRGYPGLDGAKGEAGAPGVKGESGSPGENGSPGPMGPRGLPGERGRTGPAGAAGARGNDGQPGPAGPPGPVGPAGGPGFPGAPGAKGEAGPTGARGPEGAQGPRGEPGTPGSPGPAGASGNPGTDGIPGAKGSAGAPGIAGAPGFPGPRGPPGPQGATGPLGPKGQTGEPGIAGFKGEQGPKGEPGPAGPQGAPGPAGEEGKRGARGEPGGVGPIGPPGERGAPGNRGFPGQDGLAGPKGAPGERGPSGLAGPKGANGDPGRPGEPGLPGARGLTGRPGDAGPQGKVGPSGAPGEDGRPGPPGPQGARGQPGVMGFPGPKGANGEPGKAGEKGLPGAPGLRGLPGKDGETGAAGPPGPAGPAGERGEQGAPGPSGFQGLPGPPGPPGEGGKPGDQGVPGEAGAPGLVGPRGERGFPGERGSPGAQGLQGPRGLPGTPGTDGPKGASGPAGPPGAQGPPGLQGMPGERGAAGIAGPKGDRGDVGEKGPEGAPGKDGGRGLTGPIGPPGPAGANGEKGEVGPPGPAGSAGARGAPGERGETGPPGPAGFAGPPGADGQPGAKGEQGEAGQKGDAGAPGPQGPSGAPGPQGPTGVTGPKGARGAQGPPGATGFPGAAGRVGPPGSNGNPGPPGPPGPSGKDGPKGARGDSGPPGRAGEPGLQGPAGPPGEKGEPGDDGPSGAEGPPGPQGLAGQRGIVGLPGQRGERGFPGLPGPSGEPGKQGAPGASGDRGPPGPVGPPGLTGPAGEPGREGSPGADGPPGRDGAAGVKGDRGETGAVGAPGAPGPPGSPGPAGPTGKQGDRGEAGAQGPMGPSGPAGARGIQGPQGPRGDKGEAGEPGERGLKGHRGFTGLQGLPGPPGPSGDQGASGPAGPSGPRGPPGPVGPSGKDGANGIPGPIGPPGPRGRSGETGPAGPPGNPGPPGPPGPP

Row | Compound | coupling to cartilage (anti-biotin fluorescence) (cartilage sections; [4]) | reactivity / normalized band intensity on western blot (Fibronectin) | reactivity / normalized band intensity on western blot (osteonectin) | reactivity / normalized band intensity on western blot (collagen II) | average depth of peptide coupling (cartilage) | reactivity / normalized band intensity on western blot (osteopontin) | further results
1 | C[C@]12CCC(=O)C=C1CC[C@@H]1[C@@H]2[C@@H](O)C[C@@]2(C)[C@H]1CC[C@]2(O)C(=O)COC(=O)CCC(=O)NCC(=O)N[C@@H](Cc1ccccc1)C(=O)N[C@@H](CCCCN)C(=O)NCC(=O)O [TRIP-C, Hydrocortisone-GFKG prodrug] (X1-GFKG-OH) |  |  |  |  |  |  | hydrocortisone released from tissue-bound prodrug ([1]; 4 to 48 hours, 37° C., Buffer 1, bovine synovial fluid, human OA synovial fluid): statistical increase in the amount of hydrocortisone released; hydrocortisone hydrolysis from coupled prodrug, TRIP-C compared with TRIP-PC ([1]; any of the fluids utilized): no difference in hydrocortisone hydrolysis; T50% ([2]; 1.0 mM, 75% normal synovial fluid in Buffer 1, 37° C.): 11.1 min; times more rapid hydrolysis in synovial fluid than in Buffer 1 ([2]; 37° C.): 4
2 | C[C@]12CCC(=O)C=C1CC[C@@H]1[C@@H]2[C@@H](O)C[C@@]2(C)[C@H]1CC[C@]2(O)C(=O)CO [hydrocortisone] |  |  |  |  |  |  | immunofluorescence on articular surface (anti-hydrocortisone) ([3]; 1.0 mM): no immunofluorescence was detected; nonspecific adsorption, hydrocortisone detected on the tissue surface [3]: minimal amount of hydrocortisone detected
3 | Biotin-(EO)2-FKG-NH2 [B2K] | enzymatically crosslinked to the cartilage sections | statistically greater than for B2Q or B72Q | statistically greater than for B2Q or B72Q | statistically greater than for B2Q or B72Q; also recorded: reactive toward collagen II | 13 μm |  | coupling to cartilage (anti-biotin fluorescence) (cartilage sections; in the absence of tTG): no observed fluorescence; depth of staining (cartilage; undigested cartilage tissue treated with tTG): 5.8 microns
4 | Biotin-(EO)2-FOG-NH2 [B2O] | no coupling was detected | did not demonstrate crosslinking | did not demonstrate crosslinking | did not demonstrate crosslinking |  | did not demonstrate crosslinking | 
5 | Biotin-(EO)2-GNNNLG-NH2 [B2N] | no coupling was detected | did not demonstrate crosslinking | did not demonstrate crosslinking | did not demonstrate crosslinking |  | did not demonstrate crosslinking | 
6 | Biotin-(EO)2-GQQQLG-NH2 [B2Q] | enzymatically crosslinked to the cartilage sections |  |  | less reactive toward collagen II in solution | 9.8 μm | significantly greater normalized band intensity than the B2K and B72K | coupling to cartilage (anti-biotin fluorescence) (cartilage sections; in the absence of tTG): no observed fluorescence
7 | Biotin-PEG-FKG-NH2 [B72K] | enzymatically crosslinked to the cartilage sections | statistically greater than for B2Q or B72Q | statistically greater than for B2Q or B72Q | statistically greater than for B2Q or B72Q; also recorded: reactive toward collagen II | 9.8 μm |  | number of conjugate molecules coupled per protein (MALDI-TOF) (osteopontin): one; number of conjugate molecules coupled per protein (MALDI-TOF) (osteonectin): up to 4
8 | Biotin-PEG-G-NH2 [B72] | lack of fluorescence | did not demonstrate crosslinking | did not demonstrate crosslinking | did not demonstrate crosslinking |  | did not demonstrate crosslinking | 
9 | Biotin-PEG-GQQQLG-NH2 [B72Q] | enzymatically crosslinked to the cartilage sections |  |  | less reactive toward collagen II in solution | 8.6 μm |  | number of conjugate molecules coupled per protein (MALDI-TOF) (osteopontin): up to two; number of conjugate molecules coupled per protein (MALDI-TOF) (osteonectin): up to 3
